# Reference: patent US11414379B2, “SPAK kinase inhibitors as neuroprotective agents” (United States Government as represented by the Department …, priority 2018, dated 2022)
# Assays:
# Assay in all cases: Kinase panel (Dundee profiling)
# Type in all cases: biochemical
# EPH-B4 = EPH-B4 (Homo sapiens, UniProt P54760); conditions: read-out: % residual kinase activity
# In short: (§1)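 Recombinant kinases; radioisotopic activity read-out; compound 10 μM and 1 μM; result = % residual activity vs DMSO, mean±SEM (n=3).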
# Lck = Lck (Homo sapiens, UniProt P06239); conditions: read-out: % residual kinase activity
# In short: as §1
# MAP4K3 = MAP4K3 (Homo sapiens, UniProt Q8IVH8); conditions: read-out: % residual kinase activity
# In short: as §1
# TIE2 = TIE2 (Homo sapiens, UniProt Q02763); conditions: read-out: % residual kinase activity
# In short: as §1
# DYRK3 = DYRK3 (Homo sapiens, UniProt O43781); conditions: read-out: % residual kinase activity
# In short: as §1
# TAO1 = TAO1 (Homo sapiens, UniProt Q7L7X3); conditions: read-out: % residual kinase activity
# In short: as §1
# DDR2 = DDR2 (Homo sapiens, UniProt Q16832); conditions: read-out: % residual kinase activity
# In short: as §1
# PRK2 = PRK2 (Homo sapiens, UniProt Q16513); conditions: read-out: % residual kinase activity
# In short: as §1
# SGK1 = SGK1 (Homo sapiens, UniProt O00141); conditions: read-out: % residual kinase activity
# In short: as §1
# PINK = PINK (Tribolium castaneum, UniProt D6WMX4); conditions: read-out: % residual kinase activity
# In short: as §1
# MAPKAP-K2 = MAPKAP-K2 (Homo sapiens, UniProt P49137)
# In short: as §1
# TSSK1 = TSSK1 (Homo sapiens, UniProt Q9BXA7); conditions: read-out: % residual kinase activity
# In short: as §1
# MELK = MELK (Homo sapiens, UniProt Q14680); conditions: read-out: % residual kinase activity
# In short: as §1
# DYRK1A = DYRK1A (Homo sapiens, UniProt Q13627); conditions: read-out: % residual kinase activity
# In short: as §1
# PAK2 = PAK2 (Homo sapiens, UniProt Q13177); conditions: read-out: % residual kinase activity
# In short: as §1
# EPH-B3 = EPH-B3 (Homo sapiens, UniProt P54753); conditions: read-out: % residual kinase activity
# In short: as §1
# SYK = SYK (Homo sapiens, UniProt P43405); conditions: read-out: % residual kinase activity
# In short: as §1
# PDK1 = PDK1 (Homo sapiens, UniProt O15530); conditions: read-out: % residual kinase activity
# In short: as §1
# CHK1 = CHK1 (Homo sapiens, UniProt O14757); conditions: read-out: % residual kinase activity
# In short: as §1
# TBK1 = TBK1 (Homo sapiens, UniProt Q9UHD2); conditions: read-out: % residual kinase activity
# In short: as §1
# TrkA = TrkA (Homo sapiens, UniProt P04629); conditions: read-out: % residual kinase activity
# In short: as §1
# PRAK = PRAK (Homo sapiens, UniProt Q8IW41); conditions: read-out: % residual kinase activity
# In short: as §1
# MLK3 = MLK3 (Homo sapiens, UniProt Q16584); conditions: read-out: % residual kinase activity
# In short: as §1
# MARK1 = MARK1 (Homo sapiens, UniProt Q9P0L2); conditions: read-out: % residual kinase activity
# In short: as §1
# PAK6 = PAK6 (Homo sapiens, UniProt Q9NQU5); conditions: read-out: % residual kinase activity
# In short: as §1
# PIM2 = PIM2 (Homo sapiens, UniProt Q9P1W9); conditions: read-out: % residual kinase activity
# In short: as §1
# Sequence of MAPKAP-K2 (P49137 whole entry, species assumed): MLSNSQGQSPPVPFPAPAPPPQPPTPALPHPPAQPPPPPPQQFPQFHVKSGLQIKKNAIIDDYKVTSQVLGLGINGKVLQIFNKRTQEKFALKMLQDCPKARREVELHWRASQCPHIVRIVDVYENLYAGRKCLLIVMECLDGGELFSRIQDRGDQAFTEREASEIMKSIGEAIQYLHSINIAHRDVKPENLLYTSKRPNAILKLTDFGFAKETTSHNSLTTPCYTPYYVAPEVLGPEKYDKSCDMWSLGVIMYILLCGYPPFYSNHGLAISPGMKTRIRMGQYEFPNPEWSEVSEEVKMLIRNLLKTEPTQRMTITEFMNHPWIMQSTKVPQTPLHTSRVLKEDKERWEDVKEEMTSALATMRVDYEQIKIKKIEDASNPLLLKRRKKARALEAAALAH
# Sequence of DYRK3 (O43781 whole entry, species assumed): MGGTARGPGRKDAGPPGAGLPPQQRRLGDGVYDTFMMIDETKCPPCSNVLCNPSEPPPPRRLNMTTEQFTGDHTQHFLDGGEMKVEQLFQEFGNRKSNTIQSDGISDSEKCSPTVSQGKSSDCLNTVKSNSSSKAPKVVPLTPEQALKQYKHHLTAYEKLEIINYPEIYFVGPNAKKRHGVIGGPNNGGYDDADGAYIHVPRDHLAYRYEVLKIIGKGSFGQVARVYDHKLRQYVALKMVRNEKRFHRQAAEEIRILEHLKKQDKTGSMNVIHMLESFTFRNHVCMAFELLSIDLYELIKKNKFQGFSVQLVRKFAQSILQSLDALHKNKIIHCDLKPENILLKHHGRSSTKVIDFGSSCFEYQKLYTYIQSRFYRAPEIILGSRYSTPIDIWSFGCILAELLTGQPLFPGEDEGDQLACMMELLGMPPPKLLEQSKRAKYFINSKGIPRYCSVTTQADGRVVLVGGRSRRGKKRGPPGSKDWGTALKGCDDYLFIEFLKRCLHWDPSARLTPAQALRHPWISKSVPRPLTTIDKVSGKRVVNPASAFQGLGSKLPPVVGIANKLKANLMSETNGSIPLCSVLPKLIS
# Sequence of EPH-B3 (P54753 34-998, species assumed): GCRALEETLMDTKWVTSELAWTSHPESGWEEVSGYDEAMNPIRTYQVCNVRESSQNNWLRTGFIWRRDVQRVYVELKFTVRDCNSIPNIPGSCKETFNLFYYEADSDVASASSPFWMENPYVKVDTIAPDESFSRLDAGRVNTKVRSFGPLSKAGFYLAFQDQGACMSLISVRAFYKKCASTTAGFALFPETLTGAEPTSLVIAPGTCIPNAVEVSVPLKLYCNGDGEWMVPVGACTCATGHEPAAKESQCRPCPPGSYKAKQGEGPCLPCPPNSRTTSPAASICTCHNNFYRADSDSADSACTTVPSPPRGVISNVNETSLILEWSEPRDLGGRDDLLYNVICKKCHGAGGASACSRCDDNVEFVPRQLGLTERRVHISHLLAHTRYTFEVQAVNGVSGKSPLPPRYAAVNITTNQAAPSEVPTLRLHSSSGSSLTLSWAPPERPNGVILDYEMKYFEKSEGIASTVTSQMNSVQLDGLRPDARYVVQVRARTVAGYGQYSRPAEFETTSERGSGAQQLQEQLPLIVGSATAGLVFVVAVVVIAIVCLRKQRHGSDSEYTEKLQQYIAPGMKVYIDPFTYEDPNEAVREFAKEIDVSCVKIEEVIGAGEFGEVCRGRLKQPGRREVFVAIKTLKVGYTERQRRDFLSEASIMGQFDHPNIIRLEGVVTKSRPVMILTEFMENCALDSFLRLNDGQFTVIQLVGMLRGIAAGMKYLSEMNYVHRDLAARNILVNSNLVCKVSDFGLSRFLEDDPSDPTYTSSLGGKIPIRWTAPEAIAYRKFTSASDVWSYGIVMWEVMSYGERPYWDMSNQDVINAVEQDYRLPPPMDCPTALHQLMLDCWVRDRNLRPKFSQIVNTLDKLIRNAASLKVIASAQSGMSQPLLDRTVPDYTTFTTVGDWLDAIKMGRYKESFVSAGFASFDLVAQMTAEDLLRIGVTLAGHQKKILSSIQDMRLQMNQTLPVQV
# Sequence of EPH-B4 (P54760 16-987, species assumed): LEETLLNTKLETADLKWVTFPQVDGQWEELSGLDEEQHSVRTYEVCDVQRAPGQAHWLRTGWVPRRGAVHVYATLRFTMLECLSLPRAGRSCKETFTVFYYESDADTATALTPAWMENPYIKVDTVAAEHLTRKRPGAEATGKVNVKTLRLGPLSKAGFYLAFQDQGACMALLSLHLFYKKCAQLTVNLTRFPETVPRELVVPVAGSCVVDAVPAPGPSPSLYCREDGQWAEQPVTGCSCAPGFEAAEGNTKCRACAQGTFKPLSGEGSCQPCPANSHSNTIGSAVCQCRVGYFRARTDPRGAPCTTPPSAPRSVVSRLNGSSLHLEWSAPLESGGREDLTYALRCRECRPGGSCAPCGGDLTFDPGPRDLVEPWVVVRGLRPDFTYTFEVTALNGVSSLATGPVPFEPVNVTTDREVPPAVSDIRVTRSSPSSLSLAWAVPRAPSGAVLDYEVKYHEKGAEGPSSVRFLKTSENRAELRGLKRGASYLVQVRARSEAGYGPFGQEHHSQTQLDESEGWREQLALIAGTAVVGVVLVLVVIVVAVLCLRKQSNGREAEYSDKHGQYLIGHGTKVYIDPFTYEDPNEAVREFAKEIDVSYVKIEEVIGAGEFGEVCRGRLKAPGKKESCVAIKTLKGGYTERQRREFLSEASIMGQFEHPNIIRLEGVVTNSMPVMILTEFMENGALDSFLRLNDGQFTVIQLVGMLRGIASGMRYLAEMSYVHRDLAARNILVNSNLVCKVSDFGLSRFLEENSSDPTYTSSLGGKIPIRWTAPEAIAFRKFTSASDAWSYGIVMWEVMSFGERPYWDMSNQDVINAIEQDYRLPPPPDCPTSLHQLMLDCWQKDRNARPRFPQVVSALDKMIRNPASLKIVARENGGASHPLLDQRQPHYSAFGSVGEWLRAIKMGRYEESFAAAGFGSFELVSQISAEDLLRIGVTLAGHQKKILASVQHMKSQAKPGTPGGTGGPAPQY
# Sequence of PRAK (Q8IW41 whole entry, species assumed): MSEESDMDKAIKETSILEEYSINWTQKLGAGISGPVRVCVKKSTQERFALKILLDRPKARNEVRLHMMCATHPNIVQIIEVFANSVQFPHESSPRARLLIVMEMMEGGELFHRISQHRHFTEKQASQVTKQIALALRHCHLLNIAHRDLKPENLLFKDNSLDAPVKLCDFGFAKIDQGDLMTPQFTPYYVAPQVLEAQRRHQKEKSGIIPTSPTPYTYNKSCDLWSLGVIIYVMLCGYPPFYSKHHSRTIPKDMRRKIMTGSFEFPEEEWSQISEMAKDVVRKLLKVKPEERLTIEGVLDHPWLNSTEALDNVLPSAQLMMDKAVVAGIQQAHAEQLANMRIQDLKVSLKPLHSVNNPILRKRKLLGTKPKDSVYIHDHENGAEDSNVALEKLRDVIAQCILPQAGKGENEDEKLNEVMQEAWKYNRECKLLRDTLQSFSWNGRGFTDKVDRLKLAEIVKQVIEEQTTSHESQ
# Sequence of TrkA (P04629 33-796, species assumed): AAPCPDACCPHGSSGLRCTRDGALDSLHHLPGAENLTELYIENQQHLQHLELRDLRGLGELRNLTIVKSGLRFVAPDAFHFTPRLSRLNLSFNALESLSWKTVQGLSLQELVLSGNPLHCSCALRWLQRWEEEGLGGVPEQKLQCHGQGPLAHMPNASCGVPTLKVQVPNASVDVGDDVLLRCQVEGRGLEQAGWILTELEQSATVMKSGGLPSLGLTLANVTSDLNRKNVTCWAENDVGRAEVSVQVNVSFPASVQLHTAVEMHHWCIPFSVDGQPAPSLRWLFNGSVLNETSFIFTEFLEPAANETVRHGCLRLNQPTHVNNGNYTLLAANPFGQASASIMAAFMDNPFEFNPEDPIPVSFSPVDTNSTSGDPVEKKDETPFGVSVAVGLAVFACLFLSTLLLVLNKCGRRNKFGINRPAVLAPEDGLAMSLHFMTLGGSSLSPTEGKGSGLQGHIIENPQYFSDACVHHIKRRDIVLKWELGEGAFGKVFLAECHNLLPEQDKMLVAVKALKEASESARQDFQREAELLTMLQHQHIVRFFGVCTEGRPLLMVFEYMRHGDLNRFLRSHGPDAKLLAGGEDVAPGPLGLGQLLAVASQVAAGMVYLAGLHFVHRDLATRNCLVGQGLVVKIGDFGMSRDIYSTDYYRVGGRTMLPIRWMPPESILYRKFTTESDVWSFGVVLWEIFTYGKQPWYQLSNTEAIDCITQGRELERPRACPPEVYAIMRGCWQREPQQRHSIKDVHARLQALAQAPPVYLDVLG
# Sequence of PAK6 (Q9NQU5 whole entry, species assumed): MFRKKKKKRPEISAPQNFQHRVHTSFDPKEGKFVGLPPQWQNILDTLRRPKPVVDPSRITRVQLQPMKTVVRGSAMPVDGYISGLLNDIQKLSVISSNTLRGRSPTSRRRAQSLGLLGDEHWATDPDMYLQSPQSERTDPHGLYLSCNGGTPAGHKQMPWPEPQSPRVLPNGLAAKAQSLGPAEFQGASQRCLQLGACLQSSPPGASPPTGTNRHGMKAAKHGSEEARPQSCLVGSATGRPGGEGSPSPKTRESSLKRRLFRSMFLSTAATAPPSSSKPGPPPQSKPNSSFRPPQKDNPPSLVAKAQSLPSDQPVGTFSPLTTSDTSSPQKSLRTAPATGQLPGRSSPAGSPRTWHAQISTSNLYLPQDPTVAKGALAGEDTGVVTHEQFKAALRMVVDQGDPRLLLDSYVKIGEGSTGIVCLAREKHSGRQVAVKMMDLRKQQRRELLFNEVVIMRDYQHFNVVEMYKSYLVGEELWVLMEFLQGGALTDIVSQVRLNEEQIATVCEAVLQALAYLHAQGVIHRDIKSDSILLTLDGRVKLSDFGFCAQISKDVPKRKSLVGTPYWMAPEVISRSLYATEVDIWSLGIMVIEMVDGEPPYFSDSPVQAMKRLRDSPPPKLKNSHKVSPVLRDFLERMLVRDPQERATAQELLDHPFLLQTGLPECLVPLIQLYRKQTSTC
smiles,measurement,setting,value
"Cc1cc(C(C#N)c2ccc(Cl)cc2)c(Cl)cc1NC(=O)c1cc(Cl)ccc1O (centres unmarked) [ZT-1a, 5-chloro-N-(5-chloro-4-((4-chlorophenyl)(cyano)methyl)-2-methylphenyl)-2-hydroxy-benzamide]",remaining activity at 1 µM,EPH-B4; 1 μM,100 ± 8%
same,remaining activity at 10 µM,EPH-B4; 10 μM,151 ± 33%
same,remaining activity at 1 µM,Lck; 1 μM,112 ± 13%
same,remaining activity at 10 µM,Lck; 10 μM,127 ± 14%
same,remaining activity at 1 µM,MAP4K3; 1 μM,134 ± 5%
same,remaining activity at 10 µM,MAP4K3; 10 μM,88 ± 2%
same,remaining activity at 1 µM,TIE2; 1 μM,139 ± 74%
same,remaining activity at 10 µM,TIE2; 10 μM,73 ± 11%
same,remaining activity at 1 µM,DYRK3; 1 μM,113 ± 6%
same,remaining activity at 10 µM,DYRK3; 10 μM,56 ± 15%
same,remaining activity at 1 µM,TAO1; 1 μM,66 ± 2%
same,remaining activity at 10 µM,TAO1; 10 μM,104 ± 2%
same,remaining activity at 1 µM,DDR2; 1 μM,111 ± 20%
same,remaining activity at 10 µM,DDR2; 10 μM,99 ± 8%
same,remaining activity at 1 µM,PRK2; 1 μM,118 ± 4%
same,remaining activity at 10 µM,PRK2; 10 μM,120 ± 7%
same,remaining activity at 1 µM,SGK1; 1 μM,73 ± 14%
same,remaining activity at 10 µM,SGK1; 10 μM,58 ± 5%
same,remaining activity at 1 µM,PINK; 1 μM,101 ± 13%
same,remaining activity at 10 µM,PINK; 10 μM,59 ± 4%
same,inhibition at 10 µM,"MAPKAP-K2; 10 μM, read-out: inhibition of MAPKAP-K2 activity compared to DMSO control",85 ± 7%
same,remaining activity at 1 µM,"MAPKAP-K2; MAPKAP-K2, 1 μM, read-out: % residual kinase activity",91 ± 13%
same,remaining activity at 10 µM,"MAPKAP-K2; MAPKAP-K2, 10 μM, read-out: % residual kinase activity",13 ± 7%
same,remaining activity at 1 µM,TSSK1; 1 μM,99 ± 2%
same,remaining activity at 10 µM,TSSK1; 10 μM,74 ± 6%
same,remaining activity at 1 µM,MELK; 1 μM,130 ± 34%
same,remaining activity at 10 µM,MELK; 10 μM,63 ± 3%
same,remaining activity at 1 µM,DYRK1A; 1 μM,119 ± 7%
same,remaining activity at 10 µM,DYRK1A; 10 μM,103 ± 1%
same,remaining activity at 1 µM,PAK2; 1 μM,110 ± 4%
same,remaining activity at 10 µM,PAK2; 10 μM,93 ± 8%
same,remaining activity at 1 µM,EPH-B3; 1 μM,88 ± 6%
same,remaining activity at 10 µM,EPH-B3; 10 μM,84 ± 6%
same,remaining activity at 1 µM,SYK; 1 μM,93 ± 12%
same,remaining activity at 10 µM,SYK; 10 μM,93 ± 1%
same,remaining activity at 1 µM,PDK1; 1 μM,92 ± 6%
same,remaining activity at 10 µM,PDK1; 10 μM,69 ± 17%
same,remaining activity at 1 µM,CHK1; 1 μM,111 ± 11%
same,remaining activity at 10 µM,CHK1; 10 μM,109 ± 8%
same,remaining activity at 1 µM,TBK1; 1 μM,119 ± 10%
same,remaining activity at 10 µM,TBK1; 10 μM,94 ± 3%
same,remaining activity at 1 µM,TrkA; 1 μM,108 ± 9%
same,remaining activity at 10 µM,TrkA; 10 μM,91 ± 7%
same,remaining activity at 1 µM,PRAK; 1 μM,78 ± 13%
same,remaining activity at 10 µM,PRAK; 10 μM,41 ± 7%
same,remaining activity at 1 µM,MLK3; 1 μM,119 ± 11%
same,remaining activity at 10 µM,MLK3; 10 μM,114 ± 3%
same,remaining activity at 1 µM,MARK1; 1 μM,104 ± 16%
same,remaining activity at 10 µM,MARK1; 10 μM,91 ± 5%
same,remaining activity at 1 µM,PAK6; 1 μM,69 ± 2%
same,remaining activity at 10 µM,PAK6; 10 μM,75 ± 4%
same,remaining activity at 1 µM,PIM2; 1 μM,93 ± 5%
same,remaining activity at 10 µM,PIM2; 10 μM,93 ± 3%
